Structures can show the parent of a compound that is named as a salt.
Legend:
[1] = biological target: T1, RAGE (sRAGE) binding to S100b (Homo sapiens, UniProt Q15109); assay: ELISA assay: inhibition of sRAGE binding to plate-bound S100b; settings: ligand S100b coated on plate, concentration at which 50% signal has been inhibited, read-out: ELISA Assay IC50 (μM) S-100b
T1 construct: extracellular domain can be isolated by proteolysis of RAGE to generate soluble RAGE (sRAGE) comprised of the V and C domains
T1 sequence (Q15109 23-342 limits assumed): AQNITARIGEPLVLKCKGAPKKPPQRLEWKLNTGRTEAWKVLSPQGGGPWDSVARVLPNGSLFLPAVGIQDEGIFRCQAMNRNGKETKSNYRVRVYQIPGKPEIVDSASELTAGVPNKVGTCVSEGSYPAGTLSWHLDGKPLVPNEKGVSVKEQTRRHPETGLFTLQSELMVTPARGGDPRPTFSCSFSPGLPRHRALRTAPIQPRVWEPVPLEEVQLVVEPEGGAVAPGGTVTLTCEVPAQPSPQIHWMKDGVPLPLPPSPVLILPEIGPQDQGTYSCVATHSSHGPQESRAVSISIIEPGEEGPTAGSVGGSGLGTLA
Description: (§1) This method is also described and claimed in co-pending U.S. Ser. No. 09/799,152 filed Mar. 5, 2001.
(§2) S100b, β-amyloid and CML (500 ng/100 μL/well) in 100 mM sodium bicarbonate/sodium carbonate buffer (pH 9.8) is loaded onto the wells of a NUNC Maxisorp flat bottom 96 -well microtitre plate. The plate is incubated at 4° C. overnight. The wells are aspirated and treated with 50 mM imidazole buffer saline (pH 7.2) (with 1 mM CaCl2/MgCl2) containing 1% bovine serum albumin (BSA) (300 μL/well) for two h at 37° C.
(§3) Test compounds are dissolved in nanopure water (concentration: 10-100 μM). DMSO may be used as co-solvent. 25 μL of test compound solution in 2% DMSO is added, along with 75 μL SRAGE (4.0×10^−4 mg/mL FAC) to each well and samples are incubated for 1 h at 37° C. The wells are washed 3 times with 155 mM NaCl pH 7.2 buffer saline and are soaked 10 seconds between each wash.
(§4) Non-Radioactive Binding is Performed by Adding:
(§5) 10 μL Biotinylated goat F(ab′)2 Anti-mouse IgG. (8.0×10^−4 mg/mL, FAC)
(§6) 10 μL Alk-phos-Sterptavidin (3×10^−3 mg/mL FAC)
(§7) 10 μL Polyclonal antibody for sRAGE (FAC 6.0×10^−3 mg/mL)
(§8) to 5 mL 50 mM imidazole buffer saline (pH 7.2) containing 0.2% bovine serum albumin and 1 mM […]. The mixture is incubated for 30 minutes at 37° C. 100 μL complex is added to each well and incubation is allowed to proceed at rt for 1 h. Wells are washed 3 times with wash buffer and soaked 10 s between each wash. 100 μL 1 mg/mL (pNPP) in 1 M diethanolamine (pH adjusted to 9.8 with HCl) is added. Color is allowed to develop in the dark for 1 to 2 h at rt. The reaction is quenched with 10 μL of stop solution (0.5 N NaOH in 50% ethanol) and the absorbance is measured spectrophotometrically with a microplate reader at 405 nm.

[2] = biological target: T2, RAGE (sRAGE) binding to β-amyloid (Homo sapiens, UniProt Q15109); assay: ELISA assay: inhibition of sRAGE binding to plate-bound β-amyloid; settings: ligand β-amyloid coated on plate, concentration at which 50% signal has been inhibited
T2 construct: extracellular domain can be isolated by proteolysis of RAGE to generate soluble RAGE (sRAGE) comprised of the V and C domains
T2 sequence (Q15109 23-342 limits assumed): as above
Description: as §1, §2, §3, §4, §5, §6, §7, §8

[3] = biological target: T3, RAGE (sRAGE) binding to Carboxymethyl Lysine (CML) (Homo sapiens, UniProt Q15109); assay: ELISA assay: inhibition of sRAGE binding to plate-bound CML; settings: ligand CML coated on plate, concentration at which 50% signal has been inhibited
T3 construct: extracellular domain can be isolated by proteolysis of RAGE to generate soluble RAGE (sRAGE) comprised of the V and C domains
T3 sequence (Q15109 23-342 limits assumed): as above
Description: as §1, §2, §3, §4, §5, §6, §7, §8

| Compound | IC50 [1] | IC50 [2] | IC50 [3] |
| --- | --- | --- | --- |
| CCN(CC)CCCOc1ccc(N(Cc2ccccc2)C(=O)[C@@H](Cc2ccc(OCc3ccccc3)cc2)NC(=O)OC(C)(C)C)cc1 [Example 13, (2R)-2-tert-butoxycarbonylamino-3-[4-(benzyloxy)phenyl]propionic Acid 4-(3-diethylaminopropoxy)-N-benzylaniline Amide] | 5 to 10 µM | 5 to 10 µM | 5 to 10 µM |
| CCN(CC)CCCOc1ccc(NC(=O)[C@@H]2C[C@@H](OC(C)(C)C)CN2)c(OCCCN(CC)CC)c1 [Example 5, (2S, 4R)-4-Tert-Butoxypyrrolidine-2-carboxylic acid 2,4-Di(3-diethylamino-1-propoxy)aniline Amide] | 1 to 5 µM |  |  |
| CCN(CC)CCCOc1ccc(NC(=O)CC(NC(=O)OCC2c3ccccc3-c3ccccc32)c2ccc(OC(C)(C)C)cc2)c(OCCCN(CC)CC)c1 (stereo not drawn) [Example 8, 3-(4-Tert-butoxyphenyl)-3-(9-fluorenylmethoxycarbonylamino)propionic Acid 2,4-Di-(3-diethylaminopropoxy)aniline Amide] | 0.5 to 1 µM | 0.5 to 1 µM | 0.5 to 1 µM |
| CCN(CC)CCCOc1ccc(NC(=O)CC(NC(C)C)c2cccc(OC(C)(C)C)c2)c(OCCCN(CC)CC)c1 (stereo not drawn) [Example 12, 3-Isopropylamino-3-(3-tert-butoxyphenyl)propionic Acid 2,4-Di-(3-diethylaminopropoxy)aniline Amide] | 1 to 5 µM | 1 to 5 µM | 0.5 to 1 µM |
| CCN(CC)CCCOc1ccc(N(CC2CCCCC2)C(=O)[C@H](N)Cc2ccc(OCc3ccccc3)cc2)cc1 [Example 16, (2R)-2-amino-3-[4-(benzyloxy)phenyl]propionic Acid 4-(3-diethylaminopropoxy)-N-cyclohexylmethylaniline Amide] | 1 to 5 µM | 1 to 5 µM | 1 to 5 µM |
| CCN(CC)CCCOc1ccc(N(CC2CCCC2)C(=O)[C@H](N)Cc2ccc(OCc3ccccc3)cc2)cc1 [Example 17, (2R)-2-amino-3-[4-(benzyloxy)phenyl]propionic Acid 4-(3-diethylaminopropoxy)-N-cyclopentylmethylaniline Amide] | 5 to 10 µM | 10 to 20 µM | 10 to 20 µM |
| CCCCOc1cc(C(=O)OCCN(CC)CC)ccc1NC(=O)C(N)CC1CCOCC1 (stereo not drawn) [Example 4, 3-(4-Tetrahydropyranyl)-2-aminopropionic Acid 4-Diethylaminoethoxycarbonyl-2-butoxyaniline Amide Dihydrochloride] | 10 to 20 µM |  |  |
| CCN(CC)CCCOc1ccc(NC(=O)CC(NC(=O)OCC2c3ccccc3-c3ccccc32)c2cccc(OC(C)(C)C)c2)c(OCCCN(CC)CC)c1 (stereo not drawn) [Example 2, 3-(3-Tert-butoxyphenyl)-3-(9-fluorenylmethoxycarbonylamino)propionic Acid 2,4-Di-(3-diethylaminopropoxy)aniline Amide] | < 0.5 µM | 1 to 5 µM | 0.5 to 1 µM |
| CCCCOc1cc(OCCCN(CC)CC)ccc1NC(=O)C(CC1CCN(C(=O)OCc2ccccc2)CC1)NC(=O)OCC1c2ccccc2-c2ccccc21 (stereo not drawn) [Example 26, 3-(1 -Benzyloxycarbonylpiperidin-4-yl)-2-(9-fluorenylmethoxycarbonyamino)propionic Acid 4-Diethylaminopropoxy-2-butoxyaniline Amide] | 1 to 5 µM | 1 to 5 µM | 0.5 to 1 µM |
| CCN(CC)CCCOc1ccc(NC(=O)CC(N)c2cccc(OC(C)(C)C)c2)c(OCCCN(CC)CC)c1 (stereo not drawn) [Example 3, 3-(3-Tert-butoxyphenyl)-3-aminopropionic Acid 2,4-Di-(3-diethylaminopropoxy)aniline Amide] | 1 to 5 µM | 1 to 5 µM | 1 to 5 µM |
| CCCCOc1cc(OCCCN(CC)CC)ccc1NC(=O)C(CC1CCNCC1)NC(=O)OCC1c2ccccc2-c2ccccc21 (stereo not drawn) [Example 23, 3-(Piperidin-4-yl)-2-(9-fluorenylmethoxycarbonylamino)propionic Acid 4-Diethylaminopropoxy-2-butoxyaniline Amide] | 0.5 to 1 µM | 0.5 to 1 µM | 1 to 5 µM |
| CCN(CC)CCCOc1ccc(NC(=O)CC(N)c2ccccc2OC(C)(C)C)c(OCCCN(CC)CC)c1 (stereo not drawn) [Example 11, 3-amino-3-(2-tert-butoxyphenyl)propionic Acid 2,4-Di-(3-diethylaminopropoxy)aniline Amide] | 1 to 5 µM | 1 to 5 µM | 1 to 5 µM |
| CCN(CC)CCCOc1ccc(NC(=O)CC(NC(=O)OCC2c3ccccc3-c3ccccc32)c2ccccc2OC(C)(C)C)c(OCCCN(CC)CC)c1 (stereo not drawn) [Example 10, 3-(9-fluorenylmethoxycarbonylamino)-3-(2-tert-butoxyphenyl)propionic Acid 2,4-Di-(3-diethylaminopropoxy)aniline Amide] | 0.5 to 1 µM | 1 to 5 µM | 1 to 5 µM |
| (2R)-2-tert-butoxycarbonylamino-3-[4-(benzyloxy)phenyl]propionic Acid 4-(3-diethylaminopropoxy)-N-isopropylaniline Amide [Example 15] | 1 to 5 µM | 1 to 5 µM | 5 to 10 µM |
| CCCCOc1cc(C(=O)OCCN(CC)CC)ccc1NC(=O)[C@@H]1Cc2ccccc2CN1 [Example 6, (3S)-1,2,3,4-Tetrahydroisoquinoline-3-carboxylic Acid 4-Diethylaminoethoxycarbonyl-2-butoxyaniline Amide Dihydrochloride] | 10 to 20 µM | 10 to 20 µM | 5 to 10 µM |
| CCCCOc1cc(OCCCN(CC)CC)ccc1NC(=O)C(N)CC1CCN(Cc2ccccc2)CC1 (stereo not drawn) [Example 25, 3-(1-Benzylpiperidin-4-yl)-2-aminopropionic Acid 4-Diethylaminopropoxy-2-butoxyaniline Amide] | 5 to 10 µM | 10 to 20 µM | 10 to 20 µM |
| CCCCOc1cc(OCCCN(CC)CC)ccc1NC(=O)C(CC1CCN(C(=O)OC(C)(C)C)CC1)NC(=O)OCC1c2ccccc2-c2ccccc21 (stereo not drawn) [Example 22, 3-(1-Tert-butoxycarbonylpiperidin-4-yl)-2-(9-fluorenylmethoxycarbonylamino)propionic Acid 4-Diethylaminopropoxy-2-butoxyaniline Amide] | 1 to 5 µM | 0.5 to 1 µM | 0.5 to 1 µM |
| CCCCOc1cc(OCCCN(CC)CC)ccc1NC(=O)C(CC1CCN(Cc2ccccc2)CC1)NC(=O)OCC1c2ccccc2-c2ccccc21 (stereo not drawn) [Example 24, 3-(1-Benzylpiperidin-4-yl)-2-(9-fluorenylmethoxycarbonylamino)propionic Acid 4-Diethylaminopropoxy-2-butoxyaniline Amide] | 0.5 to 1 µM | 0.5 to 1 µM | < 0.5 µM |
| CCCCOc1cc(OCCCN(CC)CC)ccc1NC(=O)C(CC1CCCN(C(=O)OC(C)(C)C)C1)NC(=O)OCC1c2ccccc2-c2ccccc21 (stereo not drawn) [Example 29, 3-(Tert-butoxycarbonylpiperidin-3-yl)-2-(9-fluorenylmethoxycarbonylamino)propionic Acid 4-Diethylaminopropoxy-2-butoxyaniline Amide] | 1 to 5 µM | 1 to 5 µM | 1 to 5 µM |
| CCN(CC)CCCOc1ccc(NC(=O)CCc2ccc(OCc3ccccc3)cc2)c(OCCCN(CC)CC)c1 [Example 1, 3-(4-Benzyloxyphenyl)propionic Acid 2,4-Di-(3-Diethylamino-1-propoxy)aniline Amide] | 1 to 5 µM |  |  |

Reference: US7423177B2, “Carboxamide derivatives as therapeutic agents” (TransTech Pharma, Inc., priority 2001, dated 2008)
